In patent US11970712B2, “Midbrain dopamine (DA) neurons for engraftment” (MEMORIAL SLOAN-KETTERING CANCER CENTER, priority 2011, dated 2024):

How the values were obtained:
hESC = experiment: Immunocytochemistry, percentage of marker positive cells in differentiating cultures; format: cell-based, human
Method: (§1) Immunohistochemistry: Cells were fixed in 4% PFA and blocked with 1% bovine serum albumin (BSA) with 0.3% Triton. Brain tissue sections were washed in cold PBS and processed similarly. Primary antibodies were diluted in 1-5% BSA or Normal Goat Serum and incubated according to manufacturer recommendations. A comprehensive list of antibodies and sources is provided as Table 6. Appropriate Alexa488, Alexa555 and Alexa647-conjugated secondary antibodies (Molecular Probes, Carlsbad, California) were used with 4′,6-diamidino-2-phenylindole (DAPI) nuclear counterstain (Thermo Fisher, Rockford, Illinois). For some analyses biotinylated secondary antibodies were used followed by visualization via DAB (3,3′-Diaminobenzidine) chromogen.
Cell Counts and Stereological Analyses. The percentages of marker positive cells at the floor plate (day 11) FIG. 1, midbrain dopamine neuron precursor (day 25), FIG. 2 and mature DA neuron stages (day 50 or later) FIGS. 3 and 11, were determined in samples derived from at least 3 independent experiments each. Images for quantification were selected in a uniform random manner and each image was scored first for the number of DAPI-positive nuclei, followed by counting the number of cells expressing the marker of interest. Data are presented as mean±SEM. Quantification of human cells (identified with anti-hNA) and TH+ neurons within grafts was performed on every tenth section where a graft was identifiable. Cell counts and graft volume was determined using the optical fractionator's probe and the Cavalieri estimator using the Stereo Investigator software (MBF bioscience, Vermont) as described previously in Tabar, et al. Nat. Biotechnol. 23:601-606 (2005), herein incorporated by reference. Data are presented as estimated total cell number and total graft volume+/−standard error of means (SEM).
as §1, with “chromogen. HPLC” for “chromogen.”
Analysis. Reversed-phase HPLC with electrochemical detection for measuring levels of dopamine, Homovanillic acid (HVA) and DOPAC (3,4-Dihydroxy-Phenylacetic Acid) was performed as described previously (Roy, et al. Nature Med. 12:1259-1268 (2006); Studer, et al. Brain Res. Bull. 41:143-150 (1996), all of which are herein incorporated by reference). Culture samples were collected in perchloric acid at day 65 of differentiation. For some experiments DA was measured directly in the medium using the same detection system but following aluminum extraction of dopamine and its metabolites using a commercially available kit as described previously (Studer, et al. Brain Res. Bull. 41:143-150 (1996), herein incorporated by reference). […]

rodent GSK3β homologs = settings: cited from earlier work
rosette stage cells = experiment: Rosette-based DA neuron induction culture; format: cell-based, human; settings: concentration suitable for patterning floor plate cells
Text: Both protocols used dual-SMAD inhibition to accelerate neural fate acquisition. LDN was used for BMP inhibition in the floor plate protocol while the traditional noggin induction was used for rosette cultures. The abbreviations are: LDN: LDN-193189, SB: SB431542, SHH (purmorphamine+SHH C25II), FGF8: FGF8, BAGCT: BDNF+ascorbic acid+GDNF+dbcAMP+TGFβ3. SHH/FGF8 in the rosette protocol used SHH C25I alone in the absence of purmorphamine following the initial recommendation for patterning of rosette-derived DA neuron cultures. […] BASF: BDNF+ascorbic acid+SHH/FGF8.
For rosette-based DA neuron induction previously described protocols were followed in part (Perrier, et al. Proc Natl Acad Sci USA 101:12543-8 (2004), herein incoropoated by reference) with at least one exception where dual-SMAD inhibition was used to accelerate the initial neural induction step. In brief, hESCs were induced towards neural fate by coculture with irradiated MS5 cells in KSR supplemented with SB431542 and Noggin (250 ng/ml (ranging in concentration from 10-1000 ng/ml); R&D), from day 2-8 and SHH+FGF8 from day 6-11 of differentiation. After 11 days in KSR, neural rosettes were manually isolated and cultured (P1 stage) in N2 medium supplemented with SHH, FGF8, BDNF and AA as described previously (Perrier, et al. Proc Natl Acad Sci USA 101:12543-8 (2004), herein incorporated by reference). […]

[1] = test system: PD-iPSC and control iPSC derived cells; experiment: Cell viability assay with alamar-blue, dose response for toxin challenge; format: cell-based, human; settings: 48 hrs, 5 and 10 uM, day 60
Text: (§2) Note: this assay tests for overall cell death while the most dramatic effects were observed specifically in DA neurons (see FIG. 14). Therefore, alamar blue based quantification will likely underestimate the extent of the differential effect observed on DA neuron lineages.
as §2, with “Exemplary quantification of cell viability—dose response assay for toxin challenge. […] Note:” for “Note:”
as §2, with “Exemplary quantification of cell viability-dose response assay for toxin challenge. […] Note:” for “Note:”

[2] = test system: PINK1 mutant PD-iPSC derived TH+ DA neurons; experiment: Toxin challenge, TH immunocytochemistry; format: cell-based, human
Method: (§3) PD-iPSC derived TH+ DA neurons derived via the floor-plate based protocols of the present inventions were more vulnerable to toxin challenge (valinomycin: mitochondria ionophore, 5 uM, 48 hr) than control-iPSC derived cells. […] G-H) low power images of immunocytochemistry for Tuj1 (red) and TH (green) by floor-plate based protocol at day 60 of differentiation: PD-iPSC of normal (G), versus toxin challenge (H) conditions and control iPSC of normal (I), versus toxin challenge (J) conditions. K-N) low power images of immunocytochemistry for Tuj1 (red) and TH (green) by MS5 based protocol at day 60 of differentiation: PD-iPSC of normal (K), versus toxin challenge (L) conditions and control iPSC of normal (M), versus toxin challenge (N) conditions.
(§4) E. DA neurons derived from genetic PD-iPS cells are more vulnerable to toxic stimulation. FIG. 24-25. PD-iPSC derived TH+DA neurons derived via floor-plate based protocol were more vulnerable to toxin challenge (valinomycin: mitochondria ionophore, 5 uM (ranging in concentration from 1-10 uM), 48 hr) than control-iPSC derived cells. […] Normal condition both of PD- and control-iPSC derived cultures obtained via MS5 based protocol (D, PD-iPSC derived cells shown), TH+ neurons following toxin challenge in PD-iPSC (E), and control-iPSC derived cultures (F) obtained via MS5 protocol. G-H) low power images of immunocytochemistry for Tuj1 (red) and TH (green) by floor-plate based protocol at day 60 of differentiation: PD-iPSC of normal (G), versus toxin challenge (H) conditions and control iPSC of normal (I), versus toxin challenge (J) conditions. K-N) low power images of immunocytochemistry for Tuj1 (red) and TH (green) by MS5 based protocol at day 60 of differentiation: PD-iPSC of normal (K), versus toxin challenge (L) conditions and control iPSC of normal (M), versus toxin challenge (N) conditions. F.
(§5) Exemplary DA neurons derived from PINK1 mutant PD-iPSC are more vulnerable to toxic stimulation. […]

[3] = test system: control-iPSC derived TH+ DA neurons; experiment: Toxin challenge, TH immunocytochemistry; format: cell-based, human; settings: 5 uM, 48 hr, floor-plate protocol, day 60
Method: as §3, §4, §5

## Cc1c[nH]c(-c2cnc(NCCNc3ccc(C#N)cn3)nc2-c2ccc(Cl)cc2Cl)n1 [CHIR99021, 6-(2-(4-(2,4-dichlorophenyl)-5-(4-methyl-1H-imidazol-2-yl)pyrimidin-2-ylamino)ethylamino)nicotinonitrile]
hESC
  potency at inducing LMX1A expression compared with recombinant Wnt3A or Wnt1: more potent
  timing of exposure giving maximum LMX1A induction: day 3-11
hESC; day 11
  LMX1A induction in FOXA2+ floor plate precursors: induced LMX1A
  co-expression of FOXA2/LMX1A: induced co-expression
Rodent GSK3β homologs
  IC50 against rodent GSK3β homologs: nanomolar

## c1ccc2c(Oc3nc(Nc4ccc(N5CCOCC5)cc4)c4ncn(C5CCCCC5)c4n3)cccc2c1 [Purmorphamine]
Rosette stage cells
  toxicity at rosette stage: shows toxicity

## CC(C)[C@@H]1NC(=O)[C@H](C)OC(=O)[C@@H](C(C)C)NC(=O)[C@@H](C(C)C)OC(=O)[C@H](C(C)C)NC(=O)[C@H](C)OC(=O)[C@@H](C(C)C)NC(=O)[C@@H](C(C)C)OC(=O)[C@H](C(C)C)NC(=O)[C@H](C)OC(=O)[C@@H](C(C)C)NC(=O)[C@@H](C(C)C)OC1=O [valinomycin]
[1]
  cell survival PD-iPSC versus control iPSC: differential cell survival
[2]; 5 uM, 48 hr, floor-plate protocol, day 60
  degeneration of TH+ DA neurons: nearly complete degeneration
[2]; classic MS5 based protocol
  vulnerability of PD- versus control-derived TH+ neurons: did not show differential vulnerability
[3]
  degeneration of TH+ DA neurons: partially degenerated

B1: FGF8: Fibroblast growth factor 8 (protein, UniProt P55075 23-233, looked up)
Fibroblast growth factor 8: QEGPGRGPALGRELASLFRAGREPQGVSQQHVREQSLVTDQLSRRLIRTYQLYSRTSGKHVQVLANKRINAMAEDGDPFAKLIVETDTFGSRVRVRGAETGLYICMNKKGKLIAKSNGKGKDCVFTEIVLENNYTALQNAKYEGWYMAFTRKGRPRKGSKTRQHQREVHFMKRLPRGHHTTEQSLRFEFLNYPPFTRSLRGSQRTWAPEPR
hESC; day 11
  co-expression of FOXA2/LMX1A: only marginal effects
